Literature values in patent US9827197B2, “Diclofenac formulations and methods of use” (APR Applied Pharma Research s.a., priority 2005, dated 2017).

Assays:
[1] = commercially available sugar coated tablets
[2] = water at 25 degrees Celsius

Row | SMILES | terminal half life [1] | solubility in water [2] [g/100 ml]
1 | O=C(O)Cc1ccccc1Nc1c(Cl)cccc1Cl [Diclofenac potassium] | about 1.9 hours | 
2 | OC[C@@H](O)[C@@H](O)[C@H](O)[C@H](O)CO [mannitol] |  | 22
